A short description of series [1]: Test Example 3: solubility in distilled water. The series is classed as physicochemical. From the text: The solubility of the water-soluble prodrugs obtained in the Examples (compounds 1A to 8A) in distilled water was compared to the solubility of (9S)-9-ethyl-9-hydroxy-1-pentyl-1H,12H-pyrano[3″,4″:6′,7′]indolizino[1′,2′:6,5]pyrido[4,3,2-de]quinazoline-10,13 (9H,15H)-dione (representative compound in Patent document 2: reference compound 1).

In series [2] the test system is human colon cancer cell line HCT116. The series is described as follows: Test Example 4: antitumor effect in HCT116 tumor-bearing nude mice. The series is classed as in vivo, BALB/c nude mice. The following applies: once per week for three weeks. The method, then:
Antitumor effects were determined for representative examples of the group of compounds of the present invention. Tumor-bearing mice were generated by subcutaneous transplantation of human colon cancer cell line HCT116 obtained from American Type Culture Collection (Virginia, USA) into the right flank of BALB/c nude mice purchased from Charles River Japan, and used for determination of antitumor effects.
After a one-week quarantine period, the purchased nude mice were subjected to subcutaneous transplantation of 5×10^6 HCT116 cells at their right flank. Mice with a tumor size reaching 200 mm^3 or so were subjected to the experiment.
The compounds were dissolved in 1 mM citric bufferes saline, pH 4, and administered intravenously. The administration was carried out once per week for three weeks, for a total of three administrations. The antitumor effect was determined as tumor growth inhibition (TGI) using the following equation. Tumor growth inhibition (TGI) (%)={(1−mean tumor volume change in the drug-treated group/mean tumor volume change in the control group)×100} The results are shown in Table 6.

Series [3] is described as follows: Comparative Test Example 1: conversion of reference compound 2 in human sera. The following applies: FIG. 6. The format is in vitro ADME. The procedure: (§1) Compound 2A was incubated at 37° C. at a concentration of 50 μM in sera of humans, mice, monkeys, and dogs. Incubation was terminated at a given time (0, 30, 60, 120, and 360 minutes), and the samples were analyzed by HPLC after deproteinization treatments.
(§2) Conditions for the HPLC analysis are as follows: • HPLC conditions • Column: Develosil C30-UG-3, 3 μm, 50×4.6 mm I.D • Column Temperature: constant temperature at approximately 25° C. • Mobile phase: A: 10 mM phosphate buffer (pH4.7) • B: acetonitrile • /B (min): 90/10(0)→90/10(0.4)→40/60(6)→2/98(8)→90/10(9)→90/10(15)
(§3) Flow rate: 1.0 mL/min • Detection: photodiode array detector, detection wavelength 350 nm • Amount injected: 30 μL
(§4) Similar to Examination 1, the percent changes of (9S)-9-ethyl-9-(tryptophyl-γ-glutamyloxy)-1-pentyl-1H,12H-pyrano[3″,4″:6′,7′]indolizino[1′,2′:6,5]pyrido[4,3,2-de]quinazoline-10,13(9H,15H)-dione [representative compound (Q) in Patent document 1: reference compound 2] being converted in the lactone form and the carboxylate form over time in human and mouse sera were determined.

A short description of series [4]: Comparative Test Example 1: conversion of reference compound 2 in mouse sera. The series is classed as in vitro ADME. Particulars: FIG. 7. The method, then: as §1, §2, §3, §4
Setting [5] is: distilled water, read-out: Solubility in distilled water.

The structures appear in SMILES notation. Counter-ions that a name gives are not always drawn. Like-named read-outs stand apart in the source and are kept apart here.

`CCCCCN1C=Nc2cccc3nc4c(c1c23)Cn1c-4cc2c(c1=O)COC(=O)[C@@]2(CC)OC(=O)CN(C)CCNC.Cl` [Compound 1A, (9S)-9-Ethyl-9-{[methyl-(2-methylamino-ethyl)-amino]-acetoxy}-1-pentyl-1H,12H-pyrano[3″,4″:6′,7′]indolizino[1′,2′:6,5]pyrido[4,3,2-de]quinazoline-10,13(9H,15H)-dione hydrochloride]: the solubility (as a rule, how much of the substance goes into solution per volume) in series [1] (setting [5]) is over 10000 µg/mL.
As for `CCCCCN1C=Nc2cccc3nc4c(c1c23)Cn1c-4cc2c(c1=O)COC(=O)[C@@]2(CC)OC(=O)CN(C)CCN.Cl` [Compound 3A, (9S)-9-{[(2-Amino-ethyl)-methyl-amino]-acetoxy}-9-ethyl-1-pentyl-1H,12H-pyrano[3″,4″:6′,7′]indolizino[1′,2′:6,5]pyrido[4,3,2-de]quinazoline-10,13(9H,15H)-dione hydrochloride], the solubility in series [1] (setting [5]) was over 10000 µg/mL.
`CCCCCN1C=Nc2cccc3nc4c(c1c23)Cn1c-4cc2c(c1=O)COC(=O)[C@@]2(CC)OC(=O)CN(C)C(=O)CNC.Cl` [Compound 4A, (9S)-9-Ethyl-9-(sarcosyl-sarcosyloxy)-1-pentyl-1H,12H-pyrano[3″,4″:6′,7′]indolizino[1′,2′:6,5]pyrido[4,3,2-de]quinazoline-10,13(9H,15H)-dione hydrochloride]: the solubility in series [1] (setting [5]) was over 10000 µg/mL.
Regarding `CC[C@@]1(OC(=O)CN(C)C(=O)CN)C(=O)OCc2c1cc1n(c2=O)Cc2cc3ccccc3nc2-1.Cl` [Compound 5A, (aminoacetyl-methyl-amino)-acetic acid (S)-4-ethyl-3,13-dioxo-3,4,12,13-tetrahydro-1H-2-oxa-6,12a-diaza-dibenzo[b,h]fluoren-4-yl ester hydrochloride], the solubility in series [1] (setting [5]) is over 10000 µg/mL.
On the same count and under the same terms, the same measure for `CCCCCN1C=Nc2cccc3nc4c(c1c23)Cn1c-4cc2c(c1=O)COC(=O)[C@@]2(CC)OC(=O)OCCS(=O)(=O)C[C@H](N)C(=O)OC` [Compound 6A, (9S)-9-{2-[(R-2-Amino-2-methoxycarbonyl)ethanesulfonyl]ethoxycarbonyloxy}-9-ethyl-1-pentyl-1H,12H-pyrano[3″,4″:6′,7′]indolizino[1′,2′:6,5]pyrido[4,3,2-de]quinazoline-10,13(9H,15H)-dione trifluoroacetic acid salt]: over 10000 µg/mL.
For the molecule `CCCCCN1C=Nc2cccc3nc4c(c1c23)Cn1c-4cc2c(c1=O)COC(=O)[C@@]2(CC)OC(=O)OCCS(=O)(=O)CCN.Cl` [Compound 8A, (9S)-9-[2-(2-Aminoethanesulfonyl)ethoxycarbonyloxy]-9-ethyl-1-pentyl-1H,12H-pyrano[3″,4″: 6′,7′]indolizino[1′,2′:6,5]pyrido[4,3,2-de]quinazoline-10,13(9H,15H)-dione hydrochloride], the “TGI (%) on Day 21” value in series [2] (0.9 mg/kg intravenously) was determined as 41%; in series [2] (1.9 mg/kg intravenously), 53%; in series [2] (3.75 mg/kg intravenously), 55%; in series [2] (7.5 mg/kg intravenously), 61%; in series [2] (15 mg/kg intravenously) it was 78%; in series [2] (30 mg/kg intravenously), 96%. For the same molecule, the “TGI (%) on Day 21” value in series [2] (60 mg/kg intravenously) is 106%. In series [1] (setting [5]), the solubility was over 10000 µg/mL.
Turning to `CCCCCN1C=Nc2cccc3nc4c(c1c23)Cn1c-4cc2c(c1=O)COC(=O)[C@]2(O)CC` [Reference compound 1, (9S)-9-ethyl-9-hydroxy-1-pentyl-1H,12H-pyrano[3″,4″:6′,7′]indolizino[1′,2′:6,5]pyrido[4,3,2-de]quinazoline-10,13 (9H,15H)-dione, reference compound], in series [1] (water), the solubility was under 10 µg/mL.
As to `CCCCCN1C=Nc2cccc3nc4c(c1c23)Cn1c-4cc2c(c1=O)COC(=O)[C@@]2(CC)OC(=O)CC[C@H](NC(=O)[C@@H](N)Cc1c[nH]c2ccccc12)C(=O)O` [reference compound 2, (9S)-9-ethyl-9-(tryptophyl-γ-glutamyloxy)-1-pentyl-1H,12H-pyrano[3″,4″:6′,7′]indolizino[1′,2′:6,5]pyrido[4,3,2-de]quinazoline-10,13(9H,15H)-dione], the “conversion rate and efficiency into the lactone form and the carboxylate form” value in series [3] and in series [4] was “low” in each case.

Values taken from patent publication US7910593B2, “Water-soluble prodrugs” (Chugai Seiyaku Kabushiki Kaisha, priority 2004, dated 2011).
